According to patent US20260284074A1, “ENT1 Inhibitors in Combination with Checkpoint Inhibitors” (iTeos Belgium SA, priority 2023, published 2026):

Key:
human T cells = assay: CMV pp65 peptide-specific T cell expansion and antigen-specific killing with ATP; format: cell-based; details: 300 μM ATP as a source of adenosine
Description: FIGS. 29A and 29B show the results of an experiment whereby human T cells were activated in the presence of 300 μM ATP and Compound 1, anti-PD-1, or Compound 1 and anti-PD-1.
Human T cells were activated in the presence of 300 μM ATP and Compound 1, anti-PD-1, or Compound 1 and anti-PD-1. CD8+ T cell population was monitored by tetramer-positive (Tet+) staining data. […] (See FIGS. 29A-29B).

MDA-MB-231 cells = assay: MDA-MB-231 subcutaneous tumor model in humanized NCG mice; format: in vivo, mouse; details: day 51; Compound 1 30 mg/kg i.p. twice a day; nivolumab 10 mg/kg i.p. every 5 days
Description: The anti-tumor therapeutic efficacy of Compound 1 monotherapy, nivolumab monotherapy, and Compound 1-nivolumab combination therapy was assessed in ‘humanized’ mice with subcutaneous tumors resulting from the subcutaneous injection of MDA-MB-231 cells, a human triple-negative breast cancer cell line.
Human cell line xenograft experiments were performed at Transcure (France) and all associated animal procedures were reviewed and approved by the local ethics committee. The experiment was carried out with the NOD-Prkdc^em26cd52Il2rg^em26cd22/NjuCrl immunodeficient mouse strain (NCG from Charles River Laboratories, Wilmington, MA, USA). Four-week-old immunodeficient NCG mice were engrafted with cord-blood-derived human CD34^+ hematopoietic stem and progenitor cells (French Blood Institute, Paris, France) 2 days after chemical myeloablative treatment. Fourteen weeks after cell injection, engraftment level was monitored with the analysis of human CD45^+ cells among total blood leukocytes by flow cytometry (Attune, Life Technologies/Thermo Fisher Scientific, Waltham, MA, USA). […]
All the animals used were monitored daily, checking their clinical signs of distress and body weight and tumors were measured three times a week using an electronic caliper. The tumor volume was determined by applying the formula Length×(Width)^2×0.5. […]

For `COc1cc(C(=O)O[C@@H]2CCCOc3cc(cc(OC)c3OC)C(=O)NCCCN3CCCN(CC2)CC3)cc(OC)c1OC` [Compound 1, (12R)-7^4,7^5-dimethoxy-6-oxo-8-oxa-5-aza-1(1,4)-diazepana-7(1,3)-benzenacyclotetradecaphane-12-yl 3,4,5-trimethoxybenzoate], the Antigen-specific killing activity (human T cells) was “restoration”, the “CMV pp65 peptide-specific T cell expansion” value (human T cells; tetramer-positive CD8+ T cells) was “restores” and the “Tumor volume compared with vehicle group” value (MDA-MB-231 cells) was “not statistically significantly different”.
